“And” between values parts separate entries of the source, which are not always exact repeats. Identical values can stand only once. “Also recorded” adds a separate entry of the source. Like-named read-outs stand apart in the source and are kept apart here.

Format in all cases: cell-based
In experiment [1] the test system is CEM, a Human T-type lymphoblast tumor cell line. Description: Cell growth inhibition of CEM cells by D-nucleosides with or without L-nucleosides. The source says: CEM, a Human T-type lymphoblast tumor cell line was used for this study. […] At the end of four days after the addition of the drug, the cell number was estimated by hemocytometer. […] The data, presented below in Table 1-3, are normalized against the control. The parenthetical values represent the expected effect the combined agents should have on cell growth.

Experiment [2] concerns HIV-1IIIB. Nature of the experiment: Anti-HIV activity: protection of MT-2 cells infected with HIV-1IIIB (MTT-dye reduction). Particulars: Human immunodeficiency virus 1, MT2, 120 h. As to the method: (§1) The following anti-HIV drugs were tested in combination with the L-nucleosides β-L-5-fluoro-2',b 3'-dideoxycytidine [β-L-FddC or L(-)FddC], β-L-5-fluoro-2',3'-dideoxy-2',3'-didehydrocytidine [β-L-Fd4C or L(-)Fd4C], β-L-5-fluoro-2',3'-dideoxy-3'-thiacytidine [L(-)FTC] and β-L-2',3'-dideoxy-3'-thiacytidine [L(-)SddC or 3TC]: 3'-azido-3'deoxythymidine (AZT) as well as the β-D-2',3'-dideoxynucleosides, for example, β-D-2',3'-dideoxycytidine (ddC), β-D-2',3'-dideoxyadenosine, β-D-2',3'-dideoxyinosine (DDI) and β-D-2',3'-didehydro-3'-deoxy-thymidine (D4T). β-L-FddC and β-L-Fd4C was obtained following the method of Lin, et al., J. Med. Chem., 37, no. 6 (1994). L(-)FTC and L(-)SddC were prepared by standard literature procedures. See, for example, Jeong, et al. J. Med. Chem., 36, 181 (1993). AZT was obtained from Sigma Chemical Co., St. Louis, Mo., USA. ddC was obtained from Aldrich Chemical Co., Milwaukke, Wis. USA. DDI and D4T were obtained from Bristol-Myers Co., Wallingford, Conn., USA.
(§2) The above-mentioned drugs were tested using MT-2 cells infected with HIV-1IIIB as described by JW Mellers, et al., Molecular Pharm. 41, 446-451 (1991) with some modification. Briefly, triplicate wells of 96-well plates containing 1×10^4 MT-2 cells were infected with HIV-1IIIB at a multiplicity of infection (MOI) of 0.1 TCID50 per cell (TCID50 - 50% tissue culture infective dose). Serial dilutions of drug were added immediately after infection. Cell viability was quantitated 5 days after infection by the MTT-dye reduction model (Larder, et al. Antimicrob. Agents Chemother. 34, 436-441, 1990). The percentage of protection was calculated with the formula [(a-b/c-b)×100], in which a=the A595 of drug-treated, virus-infected well, b=A595 of no-drug infected wells, and c=A595 of no-drug, uninfected wells.

The test system of experiment [3] is HIV-1IIIB. Nature of the experiment: Anti-HIV combination of D- and L-nucleosides in HIV-1IIIB infected MT-2 cells (isobolograms). Particulars: for Nature of the anti-HIV combination effect with L-nucleosides (ID50): D-nucleoside co-administered with β-L-FddC, L(-)FTC, L(-)SddC or β-L-Fd4C. As to the method: as §1, §2
Isobolograms (FIGS. 1-2) were plotted as the percent change in the ID50 of β-L-FddC (L(-)FddC), L(-)FTC, L(-)SddC (FIGS. 1 and 2) β-L-Fd4C (L(-)Fd4C) at various concentrations in combination with AZT, D4T, ddC or DDI at varying concentations on the x-axis and vice versa on the y-axis. Isobolograms (FIG. 3) were plotted as the percent change in the ID50 of β-L-Fd4C (L(-)Fd4C) at various concentrations in combination with AZT or D4T at varying concentrations on the x-axis and vice-versa on the y-axis.

Setting [4] is: 50 uM, in combination with 1 uM 3TC.
The mark [5] stands for this setting: 50 uM, in combination with 1 uM (-) FTC.
[6] abbreviates: 50 uM, in combination with 1 uM β-L-FddC.
The mark [7] stands for this setting: Homo sapiens, CCRF-CEM, 96 h, single agent, 50 uM, day 4, read-out: Day 4 Cell Growth - % of Control.
The mark [8] stands for this setting: MT-2 cells, HIV-1IIIB, MOI 0.1 TCID50 per cell, 5 days, read-out: ID50 (the source's name).

As to `Cc1cn([C@H]2C[C@H](N=[N+]=[N-])[C@@H](CO)O2)c(=O)[nH]c1=O` [AZT, 3'-azido-3'deoxythymidine], the “Day 4 Cell Growth - % of Control” value in experiment [1] (0.5 uM, in combination with 1 uM 3TC) is recorded as 83 % of Control; in experiment [1] (0.5 uM, in combination with 1 uM (-) FTC), 87 % of Control; in experiment [1] (0.5 uM, in combination with 1 uM β-L-FddC), 80 % of Control; in experiment [1] (5.0 uM, in combination with 1 uM 3TC) it was 76 % of Control; in experiment [1] (5.0 uM, in combination with 1 uM (-) FTC), 83 % of Control; in experiment [1] (5.0 uM, in combination with 1 uM β-L-FddC), 79 % of Control. The “Day 4 Cell Growth - % of Control” value in experiment [1] (setting [4]) was 70 % of Control; in experiment [1] (setting [5]) it was 64 % of Control; in experiment [1] (setting [6]) it was 75 % of Control; in experiment [1] (single agent, 0.5 uM, 5760 min), 82 % of Control and 85 % of Control; in experiment [1] (single agent, 5.0 uM, 5760 min), 79 % of Control; in experiment [1] (single agent, 50 uM, 5760 min) it was 72 % of Control. Further, the activity at 0.5 µM in experiment [1] (Homo sapiens, CCRF-CEM, 96 h, single agent, 0.5 uM, day 4, read-out: Day 4 Cell Growth - % of Control) worked out at 91%. Besides, in experiment [1] (Homo sapiens, CCRF-CEM, 96 h, single agent, 5.0 uM, day 4, read-out: Day 4 Cell Growth - % of Control), the activity at 5 µM came out at 89%. Also, in experiment [1] (setting [7]), the activity at 50 µM was found to be 74%. Also, the results for the “Day 4 Cell Growth - % of Control, expected effect of the combined agents (parenthetical)” value (from here on “Day 4 Cell Growth - % … (parenthetical)”) in experiment [1] (0.5 uM with 1 uM β-L-FddC), in experiment [1] (5.0 uM with 1 uM β-L-FddC) and in experiment [1] (50 uM with 1 uM β-L-FddC) were 76 % of Control, 75 % of Control and 62 % of Control, respectively. The IC50 in the experiment with HIV-1IIIB [2] (read-out: ID50) was determined as 0.09 µM. The “Nature of the anti-HIV combination effect with L-nucleosides (ID50)” value (from here on “Nature”) with HIV-1IIIB [3] was “synergistically; also recorded: synergistic”.
On to `Cc1cn([C@H]2C=C[C@@H](CO)O2)c(=O)[nH]c1=O` [D4T, β-D-2',3'-didehydro-3'-deoxy-thymidine], for which the “Day 4 Cell Growth - % of Control” value is reported as 94 % of Control in experiment [1] (0.3 uM, in combination with 1 uM 3TC); 84 % of Control in experiment [1] (0.3 uM, in combination with 1 uM (-) FTC); 86 % of Control in experiment [1] (0.3 uM, in combination with 1 uM β-L-FddC); 86 % of Control in experiment [1] (3.0 uM, in combination with 1 uM 3TC); 75 % of Control in experiment [1] (3.0 uM, in combination with 1 uM (-) FTC); 75 % of Control in experiment [1] (3.0 uM, in combination with 1 uM β-L-FddC). In addition, the “Day 4 Cell Growth - % of Control” value was 73 % of Control in experiment [1] (30 uM, in combination with 1 uM 3TC); 65 % of Control in experiment [1] (30 uM, in combination with 1 uM (-) FTC); 68 % of Control in experiment [1] (30 uM, in combination with 1 uM β-L-FddC); 89 % of Control in experiment [1] (single agent, 0.3 uM, 5760 min); 80 % of Control in experiment [1] (single agent, 3.0 uM, 5760 min); 65 % of Control and 64 % of Control in experiment [1] (single agent, 30 uM, 5760 min). Also, the activity at 0.3 µM in experiment [1] (Homo sapiens, CCRF-CEM, 96 h, single agent, 0.3 uM, day 4, read-out: Day 4 Cell Growth - % of Control) was 98%. The activity at 3 µM in experiment [1] (Homo sapiens, CCRF-CEM, 96 h, single agent, 3.0 uM, day 4, read-out: Day 4 Cell Growth - % of Control) was 84%. For the same molecule, in experiment [1] (Homo sapiens, CCRF-CEM, 96 h, single agent, 30 uM, day 4, read-out: Day 4 Cell Growth - % of Control), the activity at 30 µM turned out to be 70%. The “Day 4 Cell Growth - % … (parenthetical)” value is reported as 82 % of Control in experiment [1] (0.3 uM with 1 uM β-L-FddC), 71 % of Control in experiment [1] (3.0 uM with 1 uM β-L-FddC) and 59 % of Control in experiment [1] (30 uM with 1 uM β-L-FddC). In addition, the IC50 with HIV-1IIIB [2] (read-out: ID50) was 6 µM. For the same molecule, the “Nature” value with HIV-1IIIB [3] was “synergistically; also recorded: synergistic”.
Consider `O=c1[nH]cnc2c1ncn2C1CCC(CO)O1` [DDI, β-D-2',3'-dideoxyinosine], for which the “Day 4 Cell Growth - % of Control” value in experiment [1] (setting [4]) is 89 % of Control; in experiment [1] (setting [5]) it was 84 % of Control; in experiment [1] (setting [6]), 84 % of Control; in experiment [1] (100 uM, in combination with 1 uM 3TC), 87 % of Control; in experiment [1] (100 uM, in combination with 1 uM (-) FTC), 80 % of Control; in experiment [1] (100 uM, in combination with 1 uM β-L-FddC), 80 % of Control. In addition, the “Day 4 Cell Growth - % of Control” value in experiment [1] (200 uM, in combination with 1 uM 3TC) is listed as 80 % of Control; in experiment [1] (200 uM, in combination with 1 uM (-) FTC), 75 % of Control; in experiment [1] (200 uM, in combination with 1 uM β-L-FddC), 75 % of Control; in experiment [1] (single agent, 50 uM, 5760 min), 94 % of Control; in experiment [1] (single agent, 100 uM, 5760 min), 89 % of Control; in experiment [1] (single agent, 200 uM, 5760 min), 79 % of Control. In experiment [1] (setting [7]), the activity at 50 µM turned out to be 88%. Also, the activity at 100 µM in experiment [1] (Homo sapiens, CCRF-CEM, 96 h, single agent, 100 uM, day 4, read-out: Day 4 Cell Growth - % of Control) was found to be 85%. In experiment [1] (Homo sapiens, CCRF-CEM, 96 h, single agent, 200 uM, day 4, read-out: Day 4 Cell Growth - % of Control), the activity at 200 µM was found to be 78%. Moreover, the “Day 4 Cell Growth - % … (parenthetical)” value is given as 74 % of Control in experiment [1] (50 uM with 1 uM (-) FTC); 74 % of Control in experiment [1] (50 uM with 1 uM β-L-FddC); 71 % of Control in experiment [1] (100 uM with 1 uM (-) FTC); 71 % of Control in experiment [1] (100 uM with 1 uM β-L-FddC); 65 % of Control in experiment [1] (200 uM with 1 uM (-) FTC); 65 % of Control in experiment [1] (200 uM with 1 uM β-L-FddC). For the same molecule, the IC50 with HIV-1IIIB [2] (setting [8]) came to 20 µM. Besides, in the experiment with HIV-1IIIB [3], the “Nature” value is given as “additively; also recorded: additive”.
In the case of `Nc1nc(=O)n([C@@H]2C=C[C@H](CO)O2)cc1F` [β-L-Fd4C, β-L-5-fluoro-2',3'-dideoxy-2',3'-didehydrocytidine], the IC50 in the experiment on HIV-1IIIB [2] (setting [8]) came to 0.09 µM. In addition, the “Effect of L-nucleoside on ID50 of co-administered D-nucleoside” value in the experiment on HIV-1IIIB [3] (with AZT, D4T, ddC or DDI) is “reduces the ID50 value of AZT, ddC, DDI and D4T; also recorded: decreases the ID50 of a co-administered D-nucleoside and vice versa”.

(Values after US5756478A, “Method for reducing toxicity of D-nucleoside analogs with L-nucleosides” (priority 1996, dated 1998).)
